The values that follow come from patent publication US20250213575A1, “8-HETEROCYCLIC-3-(PHENYLSULFONYL)-[1,2,3]TRIAZOLO[1,5A]QUINAZOLIN-5(4H)-ONE DERIVATIVES AS ANTI-BACTERIALS” (priority 2022, published 2025).

Marks after values point to notes of the source that are not given here.

In one assay the test system is MRSA USA300 type strain. Particulars: mice, applied multiple times; cited from earlier work.
Another assay relates to red blood cell (RBC). Particulars: cited from earlier work.
A further assay relates to S. aureus. The conditions noted are these: after multiple passages with Savirin; cited from earlier work.
The target of another assay is AgrA (Staphylococcus aureus, UniProt P0A0I7). Description: cell-based. Also noted: species or system S. aureus USA300 strain UAMS-1625. The conditions noted are these: for Ratio IC50 (in presence of HSA)/IC50 (in absence of HSA): 40 mg/mL HSA vs without HSA.
Chain of AgrA (P0A0I7 whole entry): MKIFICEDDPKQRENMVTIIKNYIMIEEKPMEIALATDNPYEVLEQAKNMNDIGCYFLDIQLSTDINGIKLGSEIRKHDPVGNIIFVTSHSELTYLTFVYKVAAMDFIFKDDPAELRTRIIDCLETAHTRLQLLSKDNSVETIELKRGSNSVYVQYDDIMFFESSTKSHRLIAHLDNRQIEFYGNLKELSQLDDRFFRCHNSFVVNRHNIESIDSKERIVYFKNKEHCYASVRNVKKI
Where [1] appears, read: IC50 at 40 mg/mL HSA, LB medium supplemented with 40 mg/mL human serum albumin.
The mark [2] stands for this setting: IC50 without HSA, LB medium, without HSA.

On to `CC(C)c1ccc(S(=O)(=O)c2nnn3c2nc(O)c2ccccc23)cc1` [Savirin], for which the “abscess size and dermonecrosis” value with MRSA USA300 type strain is “significant reduction”. For the same compound, the “exotoxin-induced red blood cell (RBC) lysis” value in the assay with red blood cell (RBC) is given as “inhibited”. For the same compound, the resistance development result with S. aureus is recorded as “No resistance was developed”.
In the case of `Cc1ccc(S(=O)(=O)c2nnn3c2[nH]c(=O)c2ccc(N4CCOC5(CN(C)C5)C4)cc23)c(C)c1` [Compound 10, 3-(2,4-dimethylbenzenesulfonyl)-8-{2-methyl-5-oxa-2,8-diazaspiro[3.5]nonan-8-yl}-4H,5H-[1,2,3]triazolo[1,5-a]quinazolin-5-one], the “Ratio IC50 (in presence of HSA)/IC50 (in absence of HSA)” value (shortened to “Ratio IC50 (in presence of HSA)/IC50”) on AgrA is listed as “+++ (ratio ≤ 25)”. Moreover, the IC50 (as a rule, the midpoint of a concentration-inhibition curve) lay in the range of 20.2 to 101 µM against AgrA (setting [1]) and 2.02 to 10.1 µM against AgrA (setting [2]).
The like results for `Cc1ccc(S(=O)(=O)c2n[nH]n3c2nc(=O)c2ccc(N4CCC5(CCN(C)CC5)CC4)cc23)c(C)c1` [Compound 6, 3-(2,4-dimethylbenzenesulfonyl)-8-{9-methyl-3,9-diazaspiro[5.5]undecan-3-yl}-1H,5H-[1,2,3]triazolo[1,5-a]quinazolin-5-one] were, in that order, “+++ (ratio ≤ 25)”, 19.2 to 96 µM and 1.92 to 9.6 µM.
The corresponding values for `Cc1ccc(S(=O)(=O)c2nnn3c2[nH]c(=O)c2ccc(N4CC5(CN(C)C5)C4)cc23)c(C)c1` [Compound 14, 3-(2,4-dimethylbenzenesulfonyl)-8-{6-methyl-2,6-diazaspiro[3.3]heptan-2-yl}-4H,5H-[1,2,3]triazolo[1,5-a]quinazolin-5-one] are “+++ (ratio ≤ 25)”, 21.5 to 108 µM and 2.15 to 10.8 µM.
Turning to `CNC1CCN(c2ccc3c(=O)[nH]c4c(S(=O)(=O)c5ccc(C)cc5C)nnn4c3c2)CC1` [Compound 31, 3-(2,4-dimethylbenzenesulfonyl)-8-[4-(methylamino)piperidin-1-yl]-4H,5H-[1,2,3]triazolo[1,5-a]quinazolin-5-one], the “Ratio IC50 (in presence of HSA)/IC50” value on AgrA was “+++ (ratio ≤ 25)”. For the same compound, the IC50 at AgrA (setting [1]) is 21.4 to 107 µM; against AgrA (setting [2]) it was under 2.14 µM.
As to `CCN(CC)CCC(=O)N1CCN(c2ccc3c(=O)[nH]c4c(S(=O)(=O)c5ccc(C)cc5C)nnn4c3c2)CC1` [Compound 58, 8-{4-[3-(diethylamino)propanoyl]piperazin-1-yl}-3-(2,4-dimethylbenzenesulfonyl)-4H,5H-[1,2,3]triazolo[1,5-a]quinazolin-5-one], the IC50 is 17.7 to 88.4 µM against AgrA (setting [1]) and 1.77 to 8.84 µM against AgrA (setting [2]).
With “4-[3-(2,4-dimethylbenzenesulfonyl)-5-oxo-4H,5H-[1,2,3]triazolo[1,5-a]quinazolin-8-yl]piperazine-1-sulfonamide [Compound 62]”, the “Ratio IC50 (in presence of HSA)/IC50” value at AgrA is on record as “++ (ratio ≤ 125)”. The “IC50 at 40 mg/mL HSA” value against AgrA (LB medium supplemented with 40 mg/mL human serum albumin) is “++ (10 μg/mL < IC50 ≤ 50 μg/mL)”. In addition, the “IC50 without HSA” value against AgrA (LB medium, without HSA) is given as “+++ (IC50 ≤ 1 μg/mL)”.
On to `COCCOc1cc2c(cc1O)c(=O)[nH]c1c(S(=O)(=O)c3ccc(C)cc3C)nnn12` [58 (WO 2020/109350), reference compound], for which the IC50 at AgrA (IC50 at 40 mg/mL HSA (cells marked *), marked *: activity in presence of 50% of human serum, not determined in 40 mg/mL HSA) is over 112 µM; against AgrA (setting [2]) it was under 2.25 µM; on AgrA (concentration inhibiting the expression of lacZ, in the absence of HSA or HS), under 2.25 µM. Further, on AgrA (calculated based on activity in presence of 50% of human serum), the “Ratio (cells marked *)” value is given as “+* (ratio > 125)”.
With `Cc1ccc(S(=O)(=O)c2n[nH]n3c2nc(=O)c2ccc(N4CCC5(CCCN(C)C5)CC4)cc23)c(C)c1` [Compound 4, 3-(2,4-dimethylbenzenesulfonyl)-8-{2-methyl-2,9-diazaspiro[5.5]undecan-9-yl}-1H,5H-[1,2,3]triazolo[1,5-a]quinazolin-5-one], on AgrA, the “Ratio IC50 (in presence of HSA)/IC50” value is “+++ (ratio ≤ 25)”. Further, the figures for the IC50 on AgrA (setting [1]) and at AgrA (setting [2]) were 19.2 to 96 µM and 1.92 to 9.6 µM, respectively.
Turning to `Cc1ccc(S(=O)(=O)c2n[nH]n3c2nc(=O)c2ccc(N4CCOC5(CCN(C)CC5)C4)cc23)c(C)c1` [Compound 18, 3-(2,4-dimethylbenzenesulfonyl)-8-{9-methyl-1-oxa-4,9-diazaspiro[5.5]undecan-4-yl}-1H,5H-[1,2,3]triazolo[1,5-a]quinazolin-5-one], the “Ratio IC50 (in presence of HSA)/IC50” value at AgrA is on record as “+++ (ratio ≤ 25)”. Further, the IC50 on AgrA (setting [1]) lay in the range of 19.1 to 95.7 µM; against AgrA (setting [2]), 1.91 to 9.57 µM.
The like results for `Cc1ccc(S(=O)(=O)c2nnn3c2[nH]c(=O)c2ccc(N4CC[C@@H](N)C4)cc23)c(C)c1` [Compound 35, 8-[(3R)-3-aminopyrrolidin-1-yl]-3-(2,4-dimethylbenzenesulfonyl)-4H,5H-[1,2,3]triazolo[1,5-a]quinazolin-5-one] were, in that order, “+++ (ratio ≤ 25)”, 22.8 to 114 µM and under 2.28 µM.
The like results for `Cc1ccc(S(=O)(=O)c2nnn3c2[nH]c(=O)c2ccc(N4CCC(N)CC4)cc23)c(C)c1` [Compound 33, 8-(4-aminopiperidin-1-yl)-3-(2,4-dimethylbenzenesulfonyl)-4H,5H-[1,2,3]triazolo[1,5-a]quinazolin-5-one] were, in that order, “+++ (ratio ≤ 25)”, under 22.1 µM and under 2.21 µM.
The like results for `Cc1ccc(S(=O)(=O)c2nnn3c2[nH]c(=O)c2ccc(N4CCCNCC4)cc23)c(C)c1` [Compound 47, 8-(1,4-diazepan-1-yl)-3-(2,4-dimethylbenzenesulfonyl)-4H,5H-[1,2,3]triazolo[1,5-a]quinazolin-5-one] were, in that order, “+++ (ratio ≤ 25)”, under 22.1 µM and under 2.21 µM.
